From PubChem BioAssay AID256 (DTP/NCI, 2004)
“And” between values parts separate entries of the source, which are not always exact repeats. Equal values may be shown once. Inconclusive results and toxic doses are left out. Rule for the calls: active = survival T/C of 150% or more; inactive = T/C below 125% in these data.

Test system: CD2F1 mice, L1210 leukemia ip, survival T/C
Experiment: NCI In Vivo Anticancer Drug Screen. Data for tumor model L1210 Leukemia (intraperitoneal) in CD2F1 (CDF1) mice
Settings: higher = longer survival
Method in brief: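 Read-out first: treated-group measurement over vehicle-control measurement, expressed as a ratio. Animals bore a transplanted tumor line and were dosed with compound or vehicle.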

[1] = endpoint: mean survival time, dose: 100.0 mg/kg/injection, schedule: Q04DX003 (ip), vehicle: saline with Tween-80
[2] = endpoint: mean survival time, dose: 200.0 mg/kg/injection, schedule: Q04DX003 (ip), vehicle: saline with Tween-80
[3] = endpoint: mean survival time, dose: 100.0 mg/kg/injection, schedule: Q01DX009 (ip), vehicle: saline
[4] = endpoint: mean survival time, dose: 100.0 mg/kg/injection, schedule: Q04DX003 (ip), vehicle: saline
[5] = endpoint: mean survival time, dose: 200.0 mg/kg/injection, schedule: Q01DX009 (ip), vehicle: saline
[6] = endpoint: mean survival time, dose: 200.0 mg/kg/injection, schedule: Q04DX003 (ip), vehicle: saline
[7] = endpoint: mean survival time, dose: 400.0 mg/kg/injection, schedule: Q04DX003 (ip), vehicle: saline
[8] = endpoint: mean survival time, dose: 400.0 mg/kg/injection, schedule: Q04DX003 (ip), vehicle: saline with Tween-80
[9] = endpoint: mean survival time, dose: 50.0 mg/kg/injection, schedule: Q01DX009 (ip), vehicle: saline with Tween-80
[10] = endpoint: mean survival time, dose: 100.0 mg/kg/injection, schedule: Q01DX009 (ip), vehicle: saline with Tween-80
[11] = endpoint: mean survival time, dose: 200.0 mg/kg/injection, schedule: Q01DX009 (ip), vehicle: saline with Tween-80
[12] = endpoint: mean survival time, dose: 400.0 mg/kg/injection, schedule: Q01DX009 (ip), vehicle: saline with Tween-80
[13] = endpoint: mean survival time, dose: 100.0 mg/kg/injection, schedule: Q01DX001 (ip), vehicle: saline
[14] = endpoint: mean survival time, dose: 200.0 mg/kg/injection, schedule: Q01DX001 (ip), vehicle: saline
[15] = endpoint: mean survival time, dose: 400.0 mg/kg/injection, schedule: Q01DX001 (ip), vehicle: saline

Measured: T/C

Nc1nc2c(c(=O)[nH]1)N(C(=O)NCCCl)C(CNc1ccc(C(=O)NC(CCC(=O)O)C(=O)O)cc1)CN2 (stereo not drawn)
inactive: endpoint: mean survival time, dose: 100.0 mg/kg/injection, schedule: Q01DX001 (ip), vehicle: sodium bicarbonate 94 % of control | endpoint: mean survival time, dose: 200.0 mg/kg/injection, schedule: Q01DX001 (ip), vehicle: sodium bicarbonate 100 % of control | endpoint: mean survival time, dose: 400.0 mg/kg/injection, schedule: Q01DX001 (ip), vehicle: sodium bicarbonate 97 % of control

O=C(O)c1cc(Br)c(Br)s1
inactive: [1] 94 % of control | [2] 94 % of control

O=C(O)c1ccccc1C(=O)c1ccccc1
inactive: [3] 97 % of control | [4] 90 % of control | [5] 101 % of control | [6] 95 % of control | endpoint: mean survival time, dose: 400.0 mg/kg/injection, schedule: Q01DX009 (ip), vehicle: saline 101 % of control | [7] 103 % of control

O=C(CBr)c1ccc(I)cc1
inactive: endpoint: mean survival time, dose: 3.13 mg/kg/injection, schedule: Q04DX003 (ip), vehicle: saline 94 % of control | endpoint: mean survival time, dose: 6.25 mg/kg/injection, schedule: Q04DX003 (ip), vehicle: saline 98 % of control | endpoint: mean survival time, dose: 12.5 mg/kg/injection, schedule: Q04DX003 (ip), vehicle: saline 94 % of control | endpoint: mean survival time, dose: 25.0 mg/kg/injection, schedule: Q04DX003 (ip), vehicle: saline 98 % of control | endpoint: mean survival time, dose: 50.0 mg/kg/injection, schedule: Q04DX003 (ip), vehicle: saline 98 % of control | [4] 106 % of control

CCc1nc(N)nc(N)c1-c1ccc(Cl)c(N=[N+]=[N-])c1
inactive: endpoint: median survival time, dose: 12.5 mg/kg/injection, schedule: Q01DX009 (ip), vehicle: distilled water + Tween-80 100 % of control | endpoint: median survival time, dose: 25.0 mg/kg/injection, schedule: Q01DX009 (ip), vehicle: distilled water + Tween-80 101 % of control and 102 % of control | endpoint: median survival time, dose: 50.0 mg/kg/injection, schedule: Q01DX009 (ip), vehicle: distilled water + Tween-80 102 % of control and 107 % of control | endpoint: median survival time, dose: 100.0 mg/kg/injection, schedule: Q01DX009 (ip), vehicle: distilled water + Tween-80 113 % of control (2×) and 96 % of control

COC(=O)c1c(F)c(F)c(Nc2c(F)c(F)c(C(=O)OC)c(F)c2F)c(F)c1F
inactive: [1] 95 % of control | [2] 95 % of control | [8] 91 % of control

O=C(O)/C=C/SCCC(=O)O
inactive: [1] 93 % of control and 101 % of control | [2] 101 % of control and 94 % of control

O=C1CCCCCCCCCCC1Sc1ccccc1 (stereo not drawn)
inactive: [1] 91 % of control | [2] 100 % of control | [8] 91 % of control

CC(C)(c1ccccn1)C(C)(C)c1ccccn1
inactive: [9] 96 % of control | [10] 104 % of control | [11] 100 % of control

CC(=O)C(C(C)=O)C1C=CCC1 (stereo not drawn)
inactive: [10] 107 % of control | [11] 104 % of control | [12] 101 % of control

O=c1ccn(C2OC(CO)C3[O][Sn]([c]4ccccc4)([c]4ccccc4)[O]C32)c(=O)[nH]1 (stereo not drawn)
inactive: endpoint: mean survival time, dose: 1.56 mg/kg/injection, schedule: Q01DX005 (ip), vehicle: other 110 % of control | endpoint: mean survival time, dose: 3.13 mg/kg/injection, schedule: Q01DX005 (ip), vehicle: other 107 % of control | endpoint: mean survival time, dose: 6.25 mg/kg/injection, schedule: Q01DX005 (ip), vehicle: other 98 % of control | endpoint: mean survival time, dose: 12.5 mg/kg/injection, schedule: Q01DX005 (ip), vehicle: other 102 % of control and 105 % of control

COc1cc(Cl)ccc1NC(=O)OCCOc1ccc(C(C)(C)C)cc1
inactive: [9] 103 % of control | [10] 95 % of control | [11] 95 % of control

COc1ccc2c(c1)CCc1cn[nH]c1-2
inactive: [13] 101 % of control | [4] 106 % of control | [14] 103 % of control | [6] 106 % of control | [15] 98 % of control | [7] 100 % of control

CCOC1(CC)CN(Cc2ccccc2)CCO1 (stereo not drawn)
inactive: [1] 100 % of control | [2] 100 % of control | [8] 97 % of control

CC(C)c1ccc(C(O)C2CC2)cc1 (stereo not drawn)
inactive: endpoint: mean survival time, dose: 50.0 mg/kg/injection, schedule: Q01DX009 (ip), vehicle: saline 100 % of control | [3] 100 % of control | [5] 96 % of control

CCCCCCn1ncc(=O)[nH]c1=O
inactive: endpoint: mean survival time, dose: 12.5 mg/kg/injection, schedule: Q01DX009 (ip), vehicle: saline 101 % of control and 102 % of control (2×) | endpoint: mean survival time, dose: 25.0 mg/kg/injection, schedule: Q01DX009 (ip), vehicle: saline 93 % of control and 98 % of control and 101 % of control | [5] 96 % of control

O=C1NN=C(C2CCCCC2)C12CCCCC2
inactive: [1] 96 % of control | [2] 100 % of control | [8] 94 % of control

COC(=O)NC1C(C)OC(OC2C/C=C(/C)C3C=CC4C(OC5CC(OC6CCC(OC7CC(O)C(OC8CCC(O)C(C)O8)C(C)O7)C(C)O6)C(OC(C)=O)C(C)O5)C(C)CC(C)C4C3(C)/C(O)=C3/C(=O)OC4(CC(C=O)=CC(O)C4/C=C\2C)C3=O)CC1(C)[N+](=O)[O-] (stereo not drawn)
inactive: endpoint: median survival time, dose: 1.25 mg/kg/injection, schedule: Q01DX009 (ip), vehicle: water 106 % of control | endpoint: median survival time, dose: 2.5 mg/kg/injection, schedule: Q01DX009 (ip), vehicle: water 106 % of control | endpoint: median survival time, dose: 5.0 mg/kg/injection, schedule: Q01DX009 (ip), vehicle: water 113 % of control | endpoint: median survival time, dose: 10.0 mg/kg/injection, schedule: Q01DX009 (ip), vehicle: water 121 % of control

BrCc1cccc2cccnc12
inactive: [10] 88 % of control | endpoint: median survival time, dose: 50.0 mg/kg/injection, schedule: Q04DX003 (ip), vehicle: saline with Tween-80 88 % of control | endpoint: median survival time, dose: 100.0 mg/kg/injection, schedule: Q04DX003 (ip), vehicle: saline with Tween-80 88 % of control

CN(C(=O)c1cccnc1)c1ccccc1
inactive: [10] 98 % of control | [11] 101 % of control | [12] 103 % of control

CCN1/C(=C/C(C)=C/c2sc3ccc4ccccc4c3[n+]2CC)Sc2ccc3ccccc3c21
inactive: endpoint: mean survival time, dose: 0.02 mg/kg/injection, schedule: Q01DX009 (ip), vehicle: Klucel (hydroxypropylcellulose) (HPC) 101 % of control | endpoint: mean survival time, dose: 0.03 mg/kg/injection, schedule: Q01DX009 (ip), vehicle: Klucel (hydroxypropylcellulose) (HPC) 100 % of control | endpoint: mean survival time, dose: 0.05 mg/kg/injection, schedule: Q01DX009 (ip), vehicle: Klucel (hydroxypropylcellulose) (HPC) 113 % of control and 97 % of control | endpoint: mean survival time, dose: 0.1 mg/kg/injection, schedule: Q01DX009 (ip), vehicle: Klucel (hydroxypropylcellulose) (HPC) 100 % of control and 110 % of control | endpoint: mean survival time, dose: 0.2 mg/kg/injection, schedule: Q01DX009 (ip), vehicle: Klucel (hydroxypropylcellulose) (HPC) 103 % of control and 104 % of control | endpoint: mean survival time, dose: 0.4 mg/kg/injection, schedule: Q01DX009 (ip), vehicle: Klucel (hydroxypropylcellulose) (HPC) 105 % of control and 107 % of control | endpoint: mean survival time, dose: 0.8 mg/kg/injection, schedule: Q01DX009 (ip), vehicle: Klucel (hydroxypropylcellulose) (HPC) 119 % of control and 104 % of control

O=C(O)C1C(C(=O)O)C2C3C4C1C1C2C3C41 (stereo not drawn)
inactive: [1] 108 % of control | [2] 104 % of control | [8] 98 % of control

COc1ccc2c(c1)C1(C)CCCC(C#N)C1CC2 (stereo not drawn)
inactive: [13] 101 % of control | [14] 96 % of control | [15] 94 % of control

O=C1CC=C2C3CC4N(CCC45c4cc(O)c(O)cc4N1C25)C/C3=C\CBr (stereo not drawn)
inactive: endpoint: mean survival time, dose: 75.0 mg/kg/injection, schedule: Q01DX001 (ip), vehicle: saline 115 % of control

CC(C)(C)c1ccc(SCC#CCOc2ccc(Cl)cc2)cc1
inactive: [10] 95 % of control | [1] 95 % of control | [11] 91 % of control | [2] 96 % of control | [12] 88 % of control | [8] 87 % of control

NC(=O)c1ncnnc1N
inactive: endpoint: mean survival time, dose: 100.0 mg/kg/injection, schedule: Q01DX001 (ip), vehicle: carboxymethylcellulose (CMC) 93 % of control | endpoint: mean survival time, dose: 200.0 mg/kg/injection, schedule: Q01DX001 (ip), vehicle: carboxymethylcellulose (CMC) 102 % of control | endpoint: mean survival time, dose: 400.0 mg/kg/injection, schedule: Q01DX001 (ip), vehicle: carboxymethylcellulose (CMC) 102 % of control

CCCCCCCCCCCCCCCCCC[N+]1(C)CCC1C (stereo not drawn)
inactive: endpoint: mean survival time, dose: 1.56 mg/kg/injection, schedule: Q01DX001 (ip), vehicle: saline 101 % of control | endpoint: mean survival time, dose: 3.12 mg/kg/injection, schedule: Q01DX001 (ip), vehicle: saline 102 % of control

CCOC(=O)Nc1cc(NCC(=O)CCc2ccccc2)c([N+](=O)[O-])c(N)n1
inactive: endpoint: mean survival time, dose: 100.0 mg/kg/injection, schedule: Q01DX001 (ip), vehicle: Klucel (hydroxypropylcellulose) (HPC) 93 % of control | endpoint: mean survival time, dose: 200.0 mg/kg/injection, schedule: Q01DX001 (ip), vehicle: Klucel (hydroxypropylcellulose) (HPC) 91 % of control | endpoint: mean survival time, dose: 400.0 mg/kg/injection, schedule: Q01DX001 (ip), vehicle: Klucel (hydroxypropylcellulose) (HPC) 91 % of control

C1=NCCN1
inactive: [3] 106 % of control | [1] 97 % of control | [5] 89 % of control | [2] 97 % of control | [8] 90 % of control
